In patent US20260224463A1, “COMPOSITIONS COMPRISING HYDROPHILIC ACTIVE INGREDIENTS IN OIL” (Lubrizol Advanced Materials, Inc., priority 2023, published 2026):

experiment: Visual inspection of physical appearance of the compositions; assay type: physicochemical; conditions: peptide 0.125 wt. % at the optimal ingredient concentrations, in words
Description: The stability of the formulations was determined by visual inspection and by quantification of the amount of active ingredient by high performance liquid chromatography (HPLC).
Visual inspection: The results are classified as OK or KO according to the physical appearance. OK represents a transparent solution at t=0 h with small particles at the bottom after 24h. KO represents solutions completely separated into phases, turbid or with an unacceptable precipitate at the bottom.

Compound	compatibility of the peptide with the composition
Ac-EEMQRRAD-NH2 [PEP-2, Ac-Glu-Glu-Met-Gln-Arg-Arg-Ala-Asp-NH2]	good compatibility
H-FWMKRKRVP-NH2 [PEP-8, H-Phe-Trp-Met-Lys-Arg-Lys-Arg-Val-Pro-NH2]	good compatibility
CC(C)C[C@H](NC(=O)[C@H](Cc1ccccc1)NC(=O)CNC(=O)[C@@H](C)NC(=O)[C@@H](N)Cc1ccc(O)cc1)C(=O)O [PEP-9, H-Tyr-D-Ala-Gly-Phe-Leu-OH]	good compatibility

experiment: Log P of the peptides; assay type: physicochemical; conditions: not given

Compound	logP
Ac-EEMQRRAD-NH2 [PEP-2, Ac-Glu-Glu-Met-Gln-Arg-Arg-Ala-Asp-NH2]	-5.84
H-FWMKRKRVP-NH2 [PEP-8, H-Phe-Trp-Met-Lys-Arg-Lys-Arg-Val-Pro-NH2]	-3.38
CC(C)C[C@H](NC(=O)[C@H](Cc1ccccc1)NC(=O)CNC(=O)[C@@H](C)NC(=O)[C@@H](N)Cc1ccc(O)cc1)C(=O)O [PEP-9, H-Tyr-D-Ala-Gly-Phe-Leu-OH]	-1.02
